Laboratory results as given in patent US20150139973A1, “OPHTHALMOLOGICAL VEHICLE SYSTEM FOR DRUGS, OPHTHALMOLOGICAL KIT AND ALSO USE OF AN OPHTHALMOLOGICAL COMPOSITION” (F. HOLZER GMBH, priority 2012, published 2015).

Tested on: human corneal epithelial cell line HCE-T
Experiment: Vitality determination on corneal epithelial cells in culture (Cell Titer Blue test)
Assay type: cell-based
Details: 60 minutes incubation
Description: The cytotoxicity tests were performed on the human corneal epithelial cell line […]. in the cell test. Cultivation was effected in a black 96 well plate (Nunc). Per well, 25,000 cells were sown and cultivated for 48 h. Determination of the viability was implemented with the Cell Titer Blue® test. The dye resazurin is hereby added to the cells after exposure with the samples. Viable cells are able, because of their mitochondrial activity, to convert the resazurin into the fluorescent resorufin which can be determined fluorimetrically (Illustration 1). Via positive control (Krebs-Ringer-buffer-KRB and saline phosphate buffer-PBS) and also negative control (lysis buffer), the viability of the cells can be expressed as a percentage. All samples were determined with n=6. For the determination, the cell culture medium was removed, the cells were rinsed with KRB and incubated for 60 minutes with the various samples and also controls. […] Thereafter, all samples were treated with KRB and resazurin according to Promega protocol and measured with a Genios Plate Reader (Tecan).

CCCCCCCCCCCCCCCC(=O)OC(C)C [Sample K4, isopropyl palmitate]
cytotoxicity: lowest cytotoxicity | survival rate of the cells: 100%
